PubChem BioAssay (NCI)
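Step 1: Grow cells in 96-well plates. Step 2: Expose to compound for 48 hours at 5 concentrations. Step 3: Interpolate endpoints linearly; if unreached, use highest concentration. The concentration for full growth arrest is given as TGI.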

Experiments:
Assay in all cases: DTP human tumour cell line panel, 48 h
[1] = tested on: SK-MEL-28 melanoma
[2] = tested on: EKVX NSCLC
[3] = tested on: SF-268 CNS
[4] = tested on: RXF 393 renal
[5] = tested on: NCI/ADR-RES ovarian
[6] = tested on: SF-295 CNS
[7] = tested on: A549 NSCLC
[8] = tested on: K-562 leukemia
[9] = tested on: HT29 colon
[10] = tested on: NCI-H522 lung
[11] = tested on: MDA-MB-435
[12] = tested on: SF-539 CNS
[13] = tested on: HOP-92 NSCLC

Row | SMILES | TGI [1] [µM] | TGI [2] [µM] | TGI [3] [µM] | TGI [4] [µM] | TGI [5] [µM] | TGI [6] [µM] | TGI [7] [µM] | TGI [8] [µM] | TGI [9] [µM] | TGI [10] [µM] | TGI [11] [µM] | TGI [12] [µM] | TGI [13] [µM]
1 | C/C(C=O)=N\Nc1cc(C)c2ccccc2n1 | 39.1 | 33.7 | 43.2 | 43.1 | 31 | 39.4 | 43 | 46.6 | 30.8 | 47.1 | 38.1 | 28.8 | 29.6
2 | CC(=O)c1c2c(cc3c1CC1(Cc4cc5c(cc4C1)CCC5)C3)CCC2 | > 100 | > 100 | > 100 | > 100 | > 100 | > 100 | > 100 | > 100 | > 100 | > 100 | > 100 | > 100 | > 100
3 | CC[C@@]1(O)C(=O)OCc2c1c(Cl)c1n(c2=O)Cc2cc3ccccc3nc2-1 | > 100 | > 70.5 | 67.7 | 15.1 | 15.1 | 18 | > 63.2 | > 100 | > 100 | 20.8 | > 100 | 6.09 | > 70.3
4 | C[N+](C)(C)CC1Cc2ccccc2C1=O (centres undefined) | > 10 | > 10 | > 10 | > 10 | > 6.85 | > 10 | > 10 | 5.07 | > 10 | 4.56 | > 10 | > 10 | > 10
5 | Cc1ccc2c(ccc3c[n+]4ccccc4c(C)c32)c1 | 11.5 | > 100 | 6.64 | > 100 | > 100 | 27.2 | 40.9 | > 100 | 25.9 | 10.7 | 17.1 | 9.83 | 22.8
6 | O=c1nc2n(CCO)c(-c3ccccc3)c(-c3ccccc3)nc-2c(=O)[nH]1 | > 100 | > 100 | > 100 | > 100 | > 100 | > 100 | > 100 | > 100 | > 100 | > 100 | > 100 | > 100 | > 100
7 | N#Cc1cnn2c1n[n+]([O-])c1ccc(Cl)cc12 | 27.7 | 7.24 | > 40.3 | 42.4 | > 32.3 | 29.6 | > 79.8 | 3.91 | 21.7 | 3.81 | 26.4 | 44.5 | 5.21
8 | COc1ccc(CSCc2cc(OC)c(OC)c(OC)c2)cc1 | > 100 | > 31.6 | > 100 | > 100 | > 31.6 | > 100 | > 100 | > 100 | > 100 | > 100 | > 81.3 | > 100 | > 86.6
